This is an account of results in patent US20250019386A1, “PYRROLO[1,2-b]-2-PYRIDAZINONE COMPOUNDS AS 5-HT4 RECEPTOR AGONISTS” (SUVEN LIFE SCIENCES LIMITED, priority 2022, published 2025).

Structures are written as SMILES.

For data set [1], the target named is hERG tail currents in HEK293-hERG cells (Homo sapiens (Human), UniProt Q12809). The data set is described as follows: hERG patch-clamp assay. In kind it is cell-based. Conditions: whole cell patch-clamp, tail current at -40 mV, read-out: half maximal inhibitory concentration of hERG tail currents (IC50). The procedure: The HEK293-hERG cells for patch-clamp assay were cultured in DMEM: Ham's F12 (1:1 ratio) with 10% fetal bovine serum containing 0.5 mg/ml of selective antibiotic, G-418 sulfate (Calbiochem) and 0.1% penicillin and streptomycin (Thermofisher, MA, USA) in T-75 flask. Cells were harvested at 70-80% confluency by washing with Hanks' Balanced Salt Solution lacking Mg^2+ and Ca^2+ ions and subsequent addition of accumax (2.5 mL) (Sigma Aldrich, MO, USA) and incubated the flask at 5% CO2 and 37° C. until cells start sliding of the surface. After cells have completely detached from the surface about 10 mL of complete media without selective antibiotic was added and pipetted to detach the cell clumps. Additional 7.5 mL of complete media was added to collect the residual cells in the flask and cell suspension was incubated at 5% CO2 and 37° C. for 30 min. […] The peak current is measured at −40 mV tail currents using Patchliner instrument. The I-V pulse protocol was pulsed every 10 s and online analysis were recorded by substituting the leak current from the peak current and IC50 values were calculated from IGOR PRO software (WaveMetrics, Inc. Portland, OR, USA).
Chain of hERG tail currents in HEK293-hERG cells (Q12809 whole entry): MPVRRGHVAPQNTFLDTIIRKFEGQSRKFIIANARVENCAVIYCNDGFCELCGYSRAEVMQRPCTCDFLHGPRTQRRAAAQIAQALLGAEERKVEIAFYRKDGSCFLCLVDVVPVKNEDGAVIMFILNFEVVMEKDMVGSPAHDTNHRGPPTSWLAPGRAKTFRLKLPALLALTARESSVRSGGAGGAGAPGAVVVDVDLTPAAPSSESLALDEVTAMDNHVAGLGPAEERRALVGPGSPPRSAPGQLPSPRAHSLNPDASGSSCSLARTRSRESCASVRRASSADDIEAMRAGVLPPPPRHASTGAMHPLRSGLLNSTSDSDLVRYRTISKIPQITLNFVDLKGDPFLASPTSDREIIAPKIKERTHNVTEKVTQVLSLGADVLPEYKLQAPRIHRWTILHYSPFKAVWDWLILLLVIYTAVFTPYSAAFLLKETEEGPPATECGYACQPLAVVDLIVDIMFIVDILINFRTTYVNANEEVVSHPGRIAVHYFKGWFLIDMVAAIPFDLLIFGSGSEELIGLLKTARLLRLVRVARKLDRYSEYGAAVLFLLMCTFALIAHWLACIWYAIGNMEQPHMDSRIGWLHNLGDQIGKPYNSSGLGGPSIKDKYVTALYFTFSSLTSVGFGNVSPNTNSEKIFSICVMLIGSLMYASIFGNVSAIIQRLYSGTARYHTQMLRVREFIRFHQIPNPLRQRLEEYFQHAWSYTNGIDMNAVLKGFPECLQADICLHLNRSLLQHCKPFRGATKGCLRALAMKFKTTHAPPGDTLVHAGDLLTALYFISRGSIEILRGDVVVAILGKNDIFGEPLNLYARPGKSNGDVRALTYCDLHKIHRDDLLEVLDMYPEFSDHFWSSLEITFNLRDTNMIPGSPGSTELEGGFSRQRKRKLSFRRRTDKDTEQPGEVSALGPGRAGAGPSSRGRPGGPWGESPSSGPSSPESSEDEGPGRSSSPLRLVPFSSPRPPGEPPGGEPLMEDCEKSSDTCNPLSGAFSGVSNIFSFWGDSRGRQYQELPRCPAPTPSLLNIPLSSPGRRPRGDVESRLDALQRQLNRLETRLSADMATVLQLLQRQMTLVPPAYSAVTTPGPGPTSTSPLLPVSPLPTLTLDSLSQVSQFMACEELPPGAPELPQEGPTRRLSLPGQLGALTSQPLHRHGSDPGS

Data set [2] can be described thus: Rat pharmacokinetic study. In kind it is in vivo. The following applies: male Wistar rats, plasma. The procedure: Male Wistar rats (250±50 g) were used as experimental animals. Animals were housed individually in polypropylene cages. Two days prior to study, rats were anesthetized with isoflurane for surgical placement of jugular vein catheter. Rats were randomly divided for oral (3 mg/kg and 10 mL/kg as dose volume) and intravenous (1 mg/kg and 2 mL/kg as dose volume) dosing (n=3/group) and fasted overnight before oral dosing (p.o.). However, rats allocated to intravenous dosing food and water was provided ad libitum.
Intravenous formulation was prepared by using water for injection as vehicle. For Oral, formulation was prepared by using reagent grade water as vehicle. The dose formulations were prepared freshly on the day of dosing.
After dosing of animal, each time point a 200 μL of blood sample was collected through jugular vein and replenished with an equivalent volume of normal saline. The collected blood sample was transferred into a labeled eppendorf tube containing 10 μL of sodium heparin (1000 IU/mL) as an anticoagulant. Typically blood samples were collected at following time points: 0.08, 0.25, 0.5, 1, 2, 4, 6, 8, and 24 h post dose. Blood was centrifuged at 4000 rpm for 10 min. Plasma was separated and stored frozen at −80° C. until analysis. The concentrations of the test compounds were quantified in plasma by qualified LC-MS/MS method using a suitable extraction technique. The test compounds were quantified in the calibration range around 1-2000 ng/mL in plasma. Study samples were analyzed using calibration samples in the batch and quality control samples spread across the batch.
Pharmacokinetic parameters Cmax, AUCt, t1/2 and bioavailability were calculated by non-compartmental model using standard non-compartmental model by using Phoenix WinNonlin 6.4 version Software.

A short description of data set [3]: Rat brain penetration study. In kind it is in vivo. The following applies: brain/plasma, oral (gavage) 3 mg/kg, male Wistar rats, brain concentrations below LLOQ taken as zero, read-out: Single dose Brain Penetration (Cb/Cp). The protocol: Male Wistar rats (225±25 g) were used as experimental animals. Three animals were housed in each cage. Animals were given water and food ad libitum throughout the experiment and maintained on a 12 h light/dark cycle.
Brain penetration was determined in discrete manner in rats. One day prior to dosing day, male Wistar rats were acclimatized. After acclimatization, the rats were grouped according to their weight. In each group, 3 animals were kept in individual cages and allowed free access to food and water. At each time point (0.5, 1, and 2 h) n=3 animals were used.
The compounds of formula (I) were suitably preformulated and administered orally at (free base equivalent) 3 mg/kg. Blood samples were collected via, cardiac puncture by using isoflurane anesthesia. The animals were sacrificed to collect brain tissue. Plasma was separated and brain samples were homogenized and stored frozen at −20° C. until analysis.
The concentrations of the compounds of formula (I) were quantified in plasma and brain homogenate by qualified LC-MS/MS method using a suitable extraction technique. The compounds of formula (I) were quantified in the calibration range of 1-2000 ng/mL in plasma and brain homogenate. Study samples were analyzed using calibration samples in the batch and quality control samples spread across the batch. Extent of brain-plasma ratio was calculated (Cb/Cp). Brain concentrations were found below LLOQ and a value of zero was considered for calculation purposes.

Another data set has as its system colonic transit. The data set is described as follows: Effect on colonic transit in Swiss mice. In kind it is in vivo, Male Swiss mice. The following applies: 1 and 3 mg/kg, p.o., carmine dye, 3 h after dye. The procedure:
Male Swiss mice of body weight ˜20-30 g were fasted for 16 h with free access to water prior to the experiment. Mice were administrated compound of example 2 or vehicle, 30 min after administration of 0.5 ml of carmine dye solution. Mice were sacrificed 3 h after dye administration and the distance traveled by the dye from proximal colon was measured. Colonic transit was expressed as % colonic transit=100×(length of colon in which carmine moved/total length of colon).

Broadly, the AUC(0-t) is exposure summed from dosing to a finite time, without extrapolation to infinity. What is called half-life is the time in which the quantity being followed falls by half. Usually Cmax stands for the peak of the concentration-time curve. One may read the bioavailability as the share of a dose that reaches the circulation, judged against a reference dose that is usually intravenous. A lower bioavailability goes with little systemic uptake. With `CC(C)n1c(=O)c(C(=O)NC2CC3CCC(C2)N3C[C@@H](O)CN(C)S(C)(=O)=O)cc2cccn21.O=C(O)C(O)C(O)C(=O)O` (single isomer, unassigned) [Example 2], in data set [1], the IC50 is greater than 10 µM. In data set [2] (intravenous (bolus), 1 mg/kg), this compound showed an AUC(0-t) of 65 ± 3 ng·h/mL and a half-life of 1.5 ± 0.5 h. In data set [2] (oral (gavage), 3 mg/kg), this compound returned an AUC(0-t) of 160 ± 35 ng·h/mL and a Cmax of 51 ± 19 ng/mL. The bioavailability in data set [2] (oral 3 mg/kg vs intravenous 1 mg/kg) was found to be 83 ± 18%. Moreover, the Kp in data set [3] came out at 0. In the data set on colonic transit, the colonic transit entry is given as “increased the colonic transit”.
